Data reported in patent US9493460B2, “Diimide compounds” (UCL BUSINESS PLC, priority 2013, dated 2016).

Assays:
[1] = tested on: MiaPaCa2 (pancreatic) cells; assay: SRB growth inhibition assay, MiaPaCa2; assay type: cell-based, human
Method in brief: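 Growth inhibition of MiaPaCa2 cells was measured by SRB staining after 96 h exposure to 2-fold serial dilutions of compound dissolved in DMSO. IC50 was derived from mean absorbance at 540 nm expressed as a percentage of untreated control wells.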

Panc1 (pancreatic) cells = assay: SRB growth inhibition assay, 96 hr exposure, Panc1; assay type: cell-based, human; details: Homo sapiens, PANC-1, 96 h exposure
Method in brief: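 SRB growth inhibition was measured after 96 h exposure to 2-fold serial dilutions of compound, with cells maintained at 37 °C in 5% CO2 and medium containing 10% FBS. Absorbance at 540 nm was expressed as a percentage of untreated control wells. IC50 was derived from these values.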

telomerase = assay: TRAP-LIG cellular telomerase activity assay; assay type: cell-based, human; details: at the doses relevant to the IC50 values
Method: FIG. 1. Gel showing telomerase activity in MIA-Pa-Ca-2 cells treated with compound 3h after seven days of treatment. Lane 1; untreated cells, lanes 2-4; cells treated increasing concentrations of 3h. Telomerase activity was assessed using the TRAP-LIG assay as described in Materials and Methods. Compound concentrations are indicated. Neg; untreated cells, Pos; positive control. Neg: negative control with telomerase but no ligand.
Telomerase activity was determined using the TRAP-LIG assay, a modified telomere repeat amplification protocol that ensures that there is no carry-over of ligand into the second PCR step of the assay. Briefly, 1 μg of protein from untreated and treated cells were incubated with TS forward primer (0.1 μg of 5′-AAT CCG TCG AGC AGA GTT-3′) at 30° C. for 10 min to allow the initial elongation to take place. Elongated products were purified using the QIAquick nucleotide purification kit (Qiagen) according to the manufacturer's instructions. Eluted samples were freeze-dried and re-dissolved in PCR grade water. Re-dissolved PCR products were subjected to amplification in master mix containing ACX reverse primer (1 μM, 5′-GCG CGG [CTTACC]3 CTA ACC-3′), TS forward primer (0.1 μg), TRAP buffer, BSA (5 μg), 0.5 mM dNTPs, and 2U RedHot TAQ polymerase (ABgene, U.K.) for 35 cycles of 94° C. for 30 s, 61° C. for 1 min, and at 72° C. for 1 min. […]

Mia-PaCa2 cells = assay: Senescence β-galactosidase staining; assay type: cell-based, human; details: 7 days treatment
Method: FIG. 4. Micrographs showing the results of staining for evidence of cellular senescence in MiaPaCa2 cells using the β-galactosidase assay. Senescent cells are coloured blue in this procedure. Staining was performed after seven days treatments with (a) vehicle control, ×100 magnification, (b) 3.3 nM of compound 3d, ×200 magnification, (c) 6.6 nM of compound 3d, ×200 magnification, (d) 50 nM of compound 4, ×200 magnification, (e) plot of the percentage of senescent cells at the indicated concentrations of compounds 3d and 4, compared to the background senescence in this cell line (with vehicle control only). Cell counts were performed in triplicate and error bars represent estimated standard deviations.
Senescence detection and quantification experiments were carried out using the Senescence β-galactosidase staining kit (Cell Signalling Technology, MA, USA) according to the manufacturer's protocol. Briefly, 1×10^5 cells were seeded in 6-well plates in 2 ml of medium supplemented with the test compound and incubated for 24 h. Cells were washed (2 ml PBS), fixed (2% formaldehyde and 2% glutaraldehyde in PBS, 15 min, room temperature) and washed (2×2 ml PBS) before staining overnight. Senescent cells, detected by their blue pigmentation, were counted using a light microscope.
CDKN1A encodes the cyclin-dependent kinase p21WAF1 that induces replicative senescence, which is a well-studied consequence of telomerase inhibition and telomere maintenance disruption. […] Compounds 3b and 3d behaved in a similar manner to each other, with concentrations of 3-4 nM being sufficient to result in ˜50-60% of cells becoming senescent after this time-course.

[2] = Pharmacokinetics after bolus IV injection; assay type: in vivo, Balb/c female mice; details: bolus IV 20 mg/kg, mice
Excerpt: Balb/c female mice (7-8 weeks old) were housed in microisolator cages, fed with commercial mouse food (Food Harlam 2018, Madison, USA) and allowed to acclimatise for seven days before any procedure.

[3] = Tolerability and body weight in xenograft study; assay type: in vivo
Method: In a first experiment, mice were allocated into groups (six mice per group) as follows: control group (IV 100 uL/10g sterile PBS) and single dose of 20 mg/kg of 3d (IV 100 uL/10 g body weight in sterile PBS).
In a subsequent experiment using CD1 nu/nu female mice as described above, mice were allocated into groups (six mice per group) as follows: control group (IV 100 uL/10 g sterile PBS) and 3d at 15 mg/kg given once weekly. […] In the control group the median time to endpoint was 42 days compared to 79 days in the treated group.

CN1CCN(CCCNc2cc3c4c(c(NCCCN5CCN(C)CC5)cc5c4c2C(=O)N(CCCN2CCOCC2)C5=O)C(=O)N(CCCN2CCOCC2)C3=O)CC1 [Compound 3d, 4,9-bis((3-(4-methylpiperazin-1-yl)propyl)amino)-2,7-bis(3-morpholinopropyl)benzo[lmn][3,8]phenanthroline-1,3,6,8(2H,7H)-tetraone]
selectivity for Mia-PaCa2 compared to the normal fibroblast line WI-38 [1]: ~20 fold | IC50 ([1]; Homo sapiens, MIA PaCa-2, SRB assay, 96 h exposure, read-out: IC50 Mia-PaCa2): 10 to 20 nM | growth response of MiaPaCa2 cells ([1]; exposure to 80 nM): no growth recovery | growth response of MiaPaCa2 cells ([1]; exposure to 160 nM): no viable cells could be recovered by 72 h | growth response of MiaPaCa2 cells ([1]; exposure to between 5 nM and 40 nM): titratable growth inhibition with subsequent full recovery of confluent growth at 144 h | IC50 (Panc1 (pancreatic) cells): 10 to 20 nM | telomerase activity inhibition (telomerase): not inhibitors of telomerase activity | induction of senescence (in words) (Mia-PaCa2 cells): strong induction of senescence | potency as inducer of cellular senescence relative to compound 4 (Mia-PaCa2 cells): ~10 fold | drug level at 24 hours [2]: no detectable drug | Cmax ([2]; female, Balb/c, mouse, in vivo): 1600 nM | half-life ([2]; female, Balb/c, mouse, in vivo): 4 h | tolerability of therapy ([3]; 15 mg/kg once weekly): well tolerated | bodyweight loss ([3]; single dose 20 mg/kg or 15 mg/kg once weekly): without any significant bodyweight loss
